The subject of series [1] is Human immunodeficiency virus 1. Put plainly: Antiviral activity against HIV1 3B infected in human MT-4 cells assessed as protection against virus-induced cytopathicity after 5 days by MTT assay. It is filed as functional, organism-based. As to conditions: Human immunodeficiency virus 1, 3B, MT4, 120 h.
Series [2] can be described thus: Selectivity index, ratio of CC50 for human MT4 cells to EC50 for HIV1 3B. It counts as toxicity, cell-based. To be noted: read-out: Ratio CC50/EC50.
The subject of series [3] is Human immunodeficiency virus 1. As to the kind of experiment: Antiviral activity against drug-resistant HIV1 RES056 harboring reverse transcriptase K103N/Y181C double mutant infected in human MT-4 cells assessed as protection against virus-induced cytopathicity after 5 days by MTT assay. It is filed as functional, organism-based. To be noted: Human immunodeficiency virus 1, RES056, MT4, 120 h. A general note: Cytopathic effects are the visible damage that an infection or toxin causes in cultured cells.

Series [4] is described as follows: Selectivity index, ratio of CC50 for human MT4 cells to EC50 for drug-resistant HIV1 RES056 harboring reverse transcriptase K103N/Y181C double mutant. It is filed as toxicity, cell-based. As to conditions: read-out: Ratio CC50/EC50.
A short description of series [5]: Cytotoxicity against human MT4 cells after 5 days by MTT assay. It counts as cell-based. Background: Tetrazolium assays rely on reduction of a dye to a coloured formazan, in cell work by metabolically active cells.
In series [6] the target is Human immunodeficiency virus type 1 reverse transcriptase (Human immunodeficiency virus 1, UniProt Q72547). Put plainly: Inhibition of recombinant HIV1 reverse transcriptase using poly rA:dT as template/primer after 1 hr by ELISA.

Structures can show the parent of a compound that is named as a salt.

Turning to `Cc1cc(C)c(Nc2cc(NC3CCN(Cc4ccc(S(N)(=O)=O)cc4)CC3)nc(Nc3ccc(C#N)cc3)n2)c(C)c1`, the EC50 in series [1] was 0.077 µM; in series [3], above 6.4 µM. Moreover, the selectivity ratio in series [2] is 83; in series [4] it was below 1. The cytotoxic concentration (CC50) at 120 h in series [5] was determined as 6.4 µM.

Take `Cc1cc(C)c(Oc2cc(NC3CCNCC3)nc(Nc3ccc(C#N)cc3)n2)c(C)c1`: the EC50 in series [1] was 0.14 µM; in series [3], at least 1.8 µM. Besides, the values for the selectivity ratio in series [2] and in series [4] were 69 and at most 5, respectively. For the same compound, half-maximal cytotoxicity in series [5] (CC50 at 120 h) was put at 9.6 µM.

For `Cc1cc(C#N)cc(C)c1Oc1cc(NC2CCNCC2)nc(Nc2ccc(C#N)cc2)n1`, the EC50 amounted to 0.038 µM in series [1] and 0.95 µM in series [3]. For the same compound, the selectivity ratio in series [2] came to 112; in series [4], 4. In addition, the CC50 at 120 h in series [5] worked out at 4.2 µM.

For the compound `Cc1cc(C)c(Oc2cc(NC3CCN(Cc4ccc(S(N)(=O)=O)cc4)CC3)nc(Nc3ccc(C#N)cc3)n2)c(C)c1`, the EC50 in series [1] is 0.19 µM; in series [3], above 28 µM. For the same compound, the selectivity ratio was 61 in series [2] and below 1 in series [4]. Also, in series [5], the CC50 at 120 h turned out to be 11 µM.

`Cc1cc(C)c(Oc2cc(NC3CCN(Cc4ccc(S(C)(=O)=O)cc4)CC3)nc(Nc3ccc(C#N)cc3)n2)c(C)c1`: the values for the concentration for a half-maximal effect (EC50) in series [1] and in series [3] were 0.13 µM and at least 16 µM, respectively. The selectivity ratio in series [2] was 934; in series [4], at most 8. In series [5], this compound had a 50% cytotoxic concentration (CC50) at 120 h of 124 µM.

As for `Cc1cc(C)c(Oc2cc(NC3CCN(Cc4ccncc4)CC3)nc(Nc3ccc(C#N)cc3)n2)c(C)c1`, the EC50 is 0.24 µM in series [1] and above 11 µM in series [3]. Moreover, the selectivity ratio in series [2] is 44; in series [4] it was below 1. Also, in series [5], half-maximal cytotoxicity (CC50 at 120 h) was put at 11 µM.

With `Cc1cc(C#N)cc(C)c1Oc1cc(NC2CCN(Cc3ccc(S(N)(=O)=O)cc3)CC2)nc(Nc2ccc(C#N)cc2)n1`, the EC50 turned out to be 0.13 µM in series [1] and 3.9 µM in series [3]. Also, the selectivity ratio came to 93 in series [2] and 3 in series [4]. In addition, in series [5], the half-maximal cytotoxic concentration (CC50) at 120 h worked out at 12 µM.

For `Cc1cc(C#N)cc(C)c1Oc1cc(NC2CCN(Cc3ccc(S(C)(=O)=O)cc3)CC2)nc(Nc2ccc(C#N)cc2)n1`, the results for the EC50 in series [1] and in series [3] were 0.058 µM and above 206 µM, respectively. The figures for the selectivity ratio in series [2] and in series [4] were above 3550 and 1, respectively. In addition, in series [5], the half-maximal cytotoxic concentration (CC50) at 120 h is above 206 µM.

As for `Cc1cc(C#N)cc(C)c1Oc1cc(NC2CCN(Cc3ccncc3)CC2)nc(Nc2ccc(C#N)cc2)n1`, the EC50 in series [1] is 0.047 µM; in series [3] it was 4.6 µM. The selectivity ratio was determined as 2140 in series [2] and 22 in series [4]. Also, the IC50 in series [6] came out at 33 µM. Moreover, the CC50 at 120 h in series [5] amounted to 100 µM.

Consider `CC(C)Nc1cccnc1N1CCN(C(=O)c2cc3cc(NS(C)(=O)=O)ccc3[nH]2)CC1` [DELAVIRDINE MESYLATE], for which the half-maximal effective concentration (EC50) in series [1] was 0.13 µM; in series [3] it was above 36 µM. The selectivity ratio in series [2] was above 227; in series [4], 1. The compound further displayed a CC50 at 120 h in series [5] above 36 µM.

Take `O=C1Nc2ccc(Cl)cc2[C@@](C#CC2CC2)(C(F)(F)F)O1` [EFAVIRENZ]: the concentration for a half-maximal effect (EC50) in series [1] is 0.007 µM. This compound also registered a CC50 at 120 h in series [5] above 6.3 µM.

On to `Cc1ccnc2c1NC(=O)c1cccnc1N2C1CC1` [NEVIRAPINE], for which the results for the EC50 in series [1] and in series [3] were 0.17 µM and 2.5 µM, respectively. For the same compound, in series [5], the CC50 at 120 h was above 15 µM.

As a reminder, the EC50 is the concentration giving half of the maximal effect. Broadly, the CC50 is the concentration giving 50% cytotoxicity. Low values mean harm at low concentration, high ones better tolerance by the cells. In general, IC50 refers to the concentration that gives 50% inhibition.

For the origin of these results see ChEMBL document CHEMBL3091337, “Novel piperidinylamino-diarylpyrimidine derivatives with dual structural conformations as potent HIV-1 non-nucleoside reverse transcriptase inhibitors” (Bioorg Med Chem Lett, 2013).
